Reference: PubChem BioAssay AID1259407 (Chemical Carcinogenesis Research Information System (CCRIS), 2018)
Calls of active or inactive are those of the source. How the calls were made is not given here.

Tested on: CCRIS mutagenicity, Ames/micronucleus/aberration tests
Assay: CCRIS mutagenicity studies
Source text: The CCRIS database contains chemical records with carcinogenicity, mutagenicity, tumor promotion, and tumor inhibition test results. It was developed by the National Cancer Institute (NCI). Data are derived from studies cited in primary journals, current awareness tools, NCI reports, and other sources. Test results have been reviewed by experts in carcinogenesis and mutagenesis.
CCRIS provides historical information from the years 1985 - 2011. It is no longer updated.
This is an archive assay for CCRIS mutagenicity studies.

SMILES: Cc1ccccc1N
- mutagenic call (Test System: AMES SALMONELLA TYPHIMURIUM, Strain/Indicator: TA104, Metabolic Activation: HAMSTER, LIVER, S-9, SODIUM PHENOBARBITAL AND 5,6-BENZOFLAVONE, Method: PREINCUBATION): inactive; negative
- mutagenic call (Test System: AMES SALMONELLA TYPHIMURIUM, Strain/Indicator: TA104, Metabolic Activation: NONE, Method: PREINCUBATION): inactive; negative
- mutagenic call (Test System: AMES SALMONELLA TYPHIMURIUM, Strain/Indicator: TA1535, Metabolic Activation: HAMSTER LIVER S-9, AROCLOR 1254 (10%), Method: PREINCUBATION): inactive; negative
- mutagenic call (Test System: AMES SALMONELLA TYPHIMURIUM, Strain/Indicator: TA1535, Metabolic Activation: HAMSTER, LIVER, S-9, AROCLOR 1254 (10%), Method: PREINCUBATION): inactive; negative
- mutagenic call (Test System: AMES SALMONELLA TYPHIMURIUM, Strain/Indicator: TA1535, Metabolic Activation: HAMSTER, LIVER, S-9, SODIUM PHENOBARBITAL AND 5,6-BENZOFLAVONE, Method: PREINCUBATION): inactive; negative
- mutagenic call (Test System: AMES SALMONELLA TYPHIMURIUM, Strain/Indicator: TA1535, Metabolic Activation: NONE, Method: PREINCUBATION): inactive; negative
- mutagenic call (Test System: AMES SALMONELLA TYPHIMURIUM, Strain/Indicator: TA1535, Metabolic Activation: NONE, Method: STANDARD PLATE): inactive; negative
- mutagenic call (Test System: AMES SALMONELLA TYPHIMURIUM, Strain/Indicator: TA1535, Metabolic Activation: RAT LIVER S-9, AROCLOR 1254 (10 OR 30%), Method: PREINCUBATION): inactive; negative
- mutagenic call (Test System: AMES SALMONELLA TYPHIMURIUM, Strain/Indicator: TA1535, Metabolic Activation: RAT, LIVER, S-9, AROCLOR 1254 (10%), Method: PREINCUBATION): inactive; negative
- mutagenic call (Test System: AMES SALMONELLA TYPHIMURIUM, Strain/Indicator: TA1535, Metabolic Activation: RAT, LIVER, S-9, AROCLOR 1254, Method: STANDARD PLATE): inactive; negative
- mutagenic call (Test System: AMES SALMONELLA TYPHIMURIUM, Strain/Indicator: TA1537, Metabolic Activation: HAMSTER, LIVER, S-9, AROCLOR 1254 (10%), Method: PREINCUBATION): inactive; negative
- mutagenic call (Test System: AMES SALMONELLA TYPHIMURIUM, Strain/Indicator: TA1537, Metabolic Activation: HAMSTER, LIVER, S-9, SODIUM PHENOBARBITAL AND 5,6-BENZOFLAVONE, Method: PREINCUBATION): inactive; negative
- mutagenic call (Test System: AMES SALMONELLA TYPHIMURIUM, Strain/Indicator: TA1537, Metabolic Activation: NONE, Method: PREINCUBATION): inactive; negative
- mutagenic call (Test System: AMES SALMONELLA TYPHIMURIUM, Strain/Indicator: TA1537, Metabolic Activation: NONE, Method: STANDARD PLATE): inactive; negative
- mutagenic call (Test System: AMES SALMONELLA TYPHIMURIUM, Strain/Indicator: TA1537, Metabolic Activation: RAT, LIVER, S-9, AROCLOR 1254 (10%), Method: PREINCUBATION): inactive; negative
- mutagenic call (Test System: AMES SALMONELLA TYPHIMURIUM, Strain/Indicator: TA1537, Metabolic Activation: RAT, LIVER, S-9, AROCLOR 1254, Method: STANDARD PLATE): inactive; negative
- mutagenic call (Test System: AMES SALMONELLA TYPHIMURIUM, Strain/Indicator: TA1538, Metabolic Activation: NONE, Method: STANDARD PLATE): inactive; negative
- mutagenic call (Test System: AMES SALMONELLA TYPHIMURIUM, Strain/Indicator: TA1538, Metabolic Activation: RAT, LIVER, S-9, AROCLOR 1254, Method: STANDARD PLATE): inactive; negative
- mutagenic call (Test System: CHINESE HAMSTER OVARY, Strain/Indicator: CHO/6-THIOGUANINE, Metabolic Activation: HAMSTER EMBRYO CELL-MEDIATED): inactive; negative
- mutagenic call (Test System: CHINESE HAMSTER OVARY, Strain/Indicator: CHO/6-THIOGUANINE, Metabolic Activation: NONE): inactive; negative
- mutagenic call (Test System: CHINESE HAMSTER OVARY, Strain/Indicator: CHO/OUABAIN, Metabolic Activation: NONE): inactive; negative
- mutagenic call (Test System: CHINESE HAMSTER V-79, Strain/Indicator: V-79 (HGPRT)/6-THIOGUANINE, Metabolic Activation: NONE): inactive; negative
- mutagenic call (Test System: CHINESE HAMSTER V-79, Strain/Indicator: V-79 (HGPRT)/6-THIOGUANINE, Metabolic Activation: RAT, LIVER, S-9, PHENOBARBITAL AND BETA-NAPHTHOFLAVONE): inactive; negative
- mutagenic call (Test System: CHINESE HAMSTER V-79, Strain/Indicator: V-79/6-THIOGUANINE, Metabolic Activation: NONE, Method: REPLATING): active; positive
- mutagenic call (Test System: CHINESE HAMSTER V-79, Strain/Indicator: V-79/6-THIOGUANINE, Metabolic Activation: RAT, LIVER, S-9, PHENOBARBITAL AND 5,6-BENZOFLAVONE, Method: REPLATING): inactive; negative
- mutagenic call (Test System: CHINESE HAMSTER V-79, Strain/Indicator: V-79/OUABAIN, Metabolic Activation: NONE): inactive; negative
- mutagenic call (Test System: CHINESE HAMSTER V-79, Strain/Indicator: V-79/OUABAIN, Metabolic Activation: RAT, LIVER, S-15, PHENOBARBITAL AND 5,6-BENZOFLAVONE): inactive; negative
- mutagenic call (Test System: E. COLI, Strain/Indicator: WP2UVRA/PKM101, Metabolic Activation: HAMSTER, LIVER, S-9, SODIUM PHENOBARBITAL AND 5,6-BENZOFLAVONE, Method: PREINCUBATION): inactive; negative
- mutagenic call (Test System: E. COLI, Strain/Indicator: WP2UVRA/PKM101, Metabolic Activation: NONE, Method: PREINCUBATION): inactive; negative
- mutagenic call (Test System: E. COLI, Strain/Indicator: WP2UVRA, Metabolic Activation: HAMSTER, LIVER, S-9, SODIUM PHENOBARBITAL AND 5,6-BENZOFLAVONE, Method: PREINCUBATION): inactive; negative
- mutagenic call (Test System: E. COLI, Strain/Indicator: WP2 UVRA, Metabolic Activation: NONE, Method: PREINCUBATION): inactive; negative
- mutagenic call (Test System: E. COLI, Strain/Indicator: WP2UVRA, Metabolic Activation: NONE, Method: PREINCUBATION): inactive; negative
- mutagenic call (Test System: E. COLI, Strain/Indicator: WP2 UVRA, Metabolic Activation: RAT, LIVER, S-9, PHENOBARBITAL AND 5,6-BENZOFLAVONE, Method: PREINCUBATION): inactive; negative
- mutagenic call (Test System: MOUSE LYMPHOMA, Strain/Indicator: L5178Y (TK+/+)/OUABAIN, Metabolic Activation: NONE, Method: SUSPENSION/PLATE): inactive; negative
- mutagenic call (Test System: MOUSE LYMPHOMA, Strain/Indicator: L5178Y (TK+/+)/OUABAIN, Metabolic Activation: RAT LIVER S-9, AROCLOR 1254, Method: SUSPENSION/PLATE): inactive; negative
- mutagenic call (Test System: MOUSE LYMPHOMA, Strain/Indicator: L5178Y (TK+/-)/TRIFLUROTHYMIDINE, Metabolic Activation: NONE, Method: SUSPENSION/PLATE): inactive; negative
- mutagenic call (Test System: MOUSE LYMPHOMA, Strain/Indicator: L5178Y (TK+/-)/TRIFLUROTHYMIDINE, Metabolic Activation: RAT LIVER S-9, AROCLOR 1254, Method: SUSPENSION/PLATE): inactive; negative
- mutagenic call (Test System: MOUSE LYMPHOMA, Strain/Indicator: L5178Y (TK+/TK-), Metabolic Activation: NONE, Method: SUSPENSION/PLATE): inactive; negative
- mutagenic call (Test System: MOUSE LYMPHOMA, Strain/Indicator: L5178Y (TK+/TK-), Metabolic Activation: RAT, LIVER, S-9, Method: SUSPENSION/PLATE): inactive; negative
- mutagenic call (Test System: UDS RAT HEPATOCYTES, Strain/Indicator: THY INCORP, Metabolic Activation: NONE, Method: LIQUID SCINTILLATION COUNTING): active; positive
